Test results published in patent US20180161314A1, “Methods for Treating Hyperuricemia and Related Diseases” (Ardea Biosciences, Inc., priority 2010, published 2018).

System: healthy adult subjects
Assay: Drug 1 / febuxostat cross-over interaction study in healthy adult subjects (Examples 10-12)
Format: in vivo, human
Conditions: for % serum uric acid change, Mean: drug 1 200 mg qd, febuxostat 40 mg qd; for Absolute sUA reduction from baseline, Intraday peak / Absolute sUA reduction from baseline, Trough / Percent sUA reduction from baseline, Intraday peak / Percent sUA reduction from baseline, Trough: febuxostat 40 mg alone
Excerpt: Study Objectives • To compare the multiple-dose pharmacokinetics of febuxostat in the absence versus presence of drug 1 co-administration. • To compare the multiple-dose pharmacokinetics of drug 1 in the absence versus presence of febuxostat co-administration. • To measure the effects of drug 1 and febuxostat, both alone and in combination, on serum uric acid concentrations and amounts of urate excreted into urine. • To evaluate the safety and tolerability of multiple-doses of drug 1 and febuxostat, both alone or in combination.
The study is a two or three-panel, placebo-controlled (for drug 1), double-blinded (for drug 1 and matched placebo), randomized, cross-over study with up to 54 healthy adult subjects. Each panel consisting of 18 subjects is sequentially enrolled, starting with Panel 1 (200 mg once daily dose of drug 1 or placebo), followed by Panel 2 (400 mg once daily dose of drug 1 or placebo), and followed by optional Panel 3 (100 mg to 600 mg once daily dose of drug 1 or placebo). The placebo control is included in this study to better assess safety and tolerability and the serum urate lowering effect of drug 1 in combination with febuxostat. Serum urate levels may be influenced by frequent blood draws and meal contents; therefore, the true effect on serum urate levels can be determined by correcting for placebo (subtract serum urate effect in placebo subjects from serum urate effect in active subjects).
Subjects in each panel are randomly assigned to one of two treatment sequences (Sequence A or B) after all Baseline (Day −1) procedures have been completed. Each treatment sequence within a panel consists of 9 subjects randomly assigned to receive drug 1 (6 of 9 subjects) or matching placebo (3 of 9 subjects) in a double-blinded fashion. For each treatment sequence, single-agent drug treatment is administered on Days 1 to 7 (either open-label febuxostat or double-blinded drug 1 or matched placebo by random assignment), followed by combination treatment on Days 8 to 14, and completing with the alternative single-agent drug treatment on Days 15 to 21, as follows (Panel 1 shown in FIG. 2):
Sequence A: Days 1-7: Febuxostat, 40 mg (once daily) • Days 8 to 14: drug 1, 200 mg or placebo in combination with febuxostat (once daily) • Days 15-21: drug 1, 200 mg, or placebo (once daily) Sequence B: Days 1-7: drug 1, 200 mg, or placebo (once daily) • Days 8 to 14: drug 1, 200 mg or placebo in combination with febuxostat (once daily) • Days 15-21: Febuxostat, 40 mg (once daily) […]
Serial blood samples for PK and PD assessments are collected up to 24 hours after dosing on Days 7, 14, and 21. Urine (total catch) for assays of drug 1, creatinine, and uric acid are collected starting on Day −1 (pre-treatment baseline) and after dosing on Days 7, 14, and 21. Final safety assessments are completed when subjects return to the clinic at 7±1 days after discharge from the clinic on Day 22 (Follow-Up visit on Day 29). The total volume of blood collected from each subject is approximately 518 mL.
Screening procedures to determine subject eligibility are performed 28 days before the first dose of study drug (Day 1). A total of up to 54 subjects enrolled in up to 3 panels consisting of 2 sequences each, with 9 subjects per sequence (18 subjects per panel). Subjects withdrawing after dosing are not replaced.
Subjects in Panel 1 receive a 200 mg dose of drug 1 or placebo once daily for 14 days and a 40 mg dose of febuxostat once daily for 14 days. Subjects in Panel 2 receive a 400 mg dose of drug 1 or placebo once daily for 14 days and a 40 mg dose of febuxostat once daily for 14 days. Subjects in Panel 3 receive a 100-600 mg dose of drug 1 or placebo once daily for 14 days and a 40 mg dose of febuxostat once daily for 14 days.
Subjects in Sequence A begin dosing on Day 1 with febuxostat and take their first dose of drug 1 or placebo on Day 8. […]

[1] = Week 2, Drug 1 200 mg + febuxostat 40 mg combo

Cc1nc(-c2ccc(OCC(C)C)c(C#N)c2)sc1C(=O)O [Febuxostat, 2-(3-Cyano-4-isobutoxyphenyl)-4-methyl-1,3-thiazole-5-carboxylic acid, reference compound]
serum uric acid change from baseline, daily (Day 1, Drug 1 200 mg, FBX 40 mg): −6.4% | % serum uric acid change, Mean (Day 1): −7.5% | serum uric acid change from baseline, daily (Day 2, Drug 1 200 mg, FBX 40 mg): −25.7% | % serum uric acid change, Mean (Day 2): −23.8% | serum uric acid change from baseline, daily (Day 3, Drug 1 200 mg, FBX 40 mg): −33.6% | % serum uric acid change, Mean (Day 3): −30.5% | serum uric acid change from baseline, daily (Day 4, Drug 1 200 mg, FBX 40 mg): −37.8% | % serum uric acid change, Mean (Day 4): −34.5% | serum uric acid change from baseline, daily (Day 5, Drug 1 200 mg, FBX 40 mg): −37.9% | % serum uric acid change, Mean (Day 5): −34.3% | serum uric acid change from baseline, daily (Day 6, Drug 1 200 mg, FBX 40 mg): −42.6% | % serum uric acid change, Mean (Day 6): −38.1% | serum uric acid change from baseline, daily (Day 7, Drug 1 200 mg, FBX 40 mg): −44.6% | % serum uric acid change, Mean (Day 7): −39.0% | serum uric acid change from baseline, daily (Day 8, Drug 1 200 mg, FBX 40 mg, alone or combined as labelled): −42.7% | % serum uric acid change, Mean (Day 8): −38.9% | serum uric acid change from baseline, daily (Day 9, Drug 1 200 mg, FBX 40 mg, alone or combined as labelled): −38.1% | serum uric acid change from baseline, daily (Day 10, Drug 1 200 mg, FBX 40 mg, alone or combined as labelled): −40% | serum uric acid change from baseline, daily (Day 11, Drug 1 200 mg, FBX 40 mg, alone or combined as labelled): −39.2% | serum uric acid change from baseline, daily (Day 12, Drug 1 200 mg, FBX 40 mg, alone or combined as labelled): −36.9% | serum uric acid change from baseline, daily (Day 13, Drug 1 200 mg, FBX 40 mg, alone or combined as labelled): −36.8% | serum uric acid change from baseline, daily (Day 14, Drug 1 200 mg, FBX 40 mg, alone or combined as labelled): −42% | serum uric acid change from baseline, daily (Day 15, Drug 1 200 mg, FBX 40 mg, alone or combined as labelled): −39.1% | serum uric acid change from baseline, daily (Day 15, FBX 40 mg after combo): −62.3% | serum uric acid change from baseline, daily (Day 16, Drug 1 200 mg alone (week 3), FBX 40 mg alone): −36.5% | serum uric acid change from baseline, daily (Day 16, FBX 40 mg after combo): −50.9% | serum uric acid change from baseline, daily (Day 17, Drug 1 200 mg alone (week 3), FBX 40 mg alone): −35.8% | serum uric acid change from baseline, daily (Day 17, FBX 40 mg after combo): −45.6% | serum uric acid change from baseline, daily (Day 18, Drug 1 200 mg alone (week 3), FBX 40 mg alone): −36.3% | serum uric acid change from baseline, daily (Day 18, FBX 40 mg after combo): −45.7% | serum uric acid change from baseline, daily (Day 19, Drug 1 200 mg alone (week 3), FBX 40 mg alone): −33.6% | serum uric acid change from baseline, daily (Day 19, FBX 40 mg after combo): −41% | serum uric acid change from baseline, daily (Day 20, Drug 1 200 mg alone (week 3), FBX 40 mg alone): −34.3% | serum uric acid change from baseline, daily (Day 20, FBX 40 mg after combo): −42.9% | serum uric acid change from baseline, daily (Day 21, Drug 1 200 mg alone (week 3), FBX 40 mg alone): −37.6% | serum uric acid change from baseline, daily (Day 21, FBX 40 mg after combo): −49.1% | serum uric acid change from baseline, daily (Day 22, Drug 1 200 mg alone (week 3), FBX 40 mg alone): −35.2% | serum uric acid change from baseline, daily (Day 22, FBX 40 mg after combo): −45.7% | Absolute sUA reduction from baseline, Intraday peak (Week 1, Drug 1 200 mg alone): -3.4 mg/dL | Absolute sUA reduction from baseline, Trough (Week 1, Drug 1 200 mg alone): -2.8 mg/dL | Percent sUA reduction from baseline, Intraday peak (Week 1, Drug 1 200 mg alone): −55.3% | Percent sUA reduction from baseline, Trough (Week 1, Drug 1 200 mg alone): −45.4% | Absolute sUA reduction from baseline, Intraday peak [1]: -3.1 mg/dL | Absolute sUA reduction from baseline, Trough [1]: -2.6 mg/dL | Percent sUA reduction from baseline, Intraday peak [1]: −50.1% | Percent sUA reduction from baseline, Trough [1]: −41.2% | Absolute sUA reduction from baseline, Intraday peak (Week 3, Drug 1 200 mg alone): -3.3 mg/dL | Absolute sUA reduction from baseline, Trough (Week 3, Drug 1 200 mg alone): -2.7 mg/dL | Percent sUA reduction from baseline, Intraday peak (Week 3, Drug 1 200 mg alone): −49.0% | Percent sUA reduction from baseline, Trough (Week 3, Drug 1 200 mg alone): −42.1%
